Source: patent US10477864B2, “Microbiocidal quinoline (thio)carboxamide derivatives” (priority 2016, dated 2019)

Experiments:
Fusarium culmorum [1] = assay: microbe, parasite or virus in culture; format: cell-based; details: read-out: control of Fusarium culmorum
[2] = tested on: Monographella nivalis (Microdochium nivale); assay: Monographella nivalis (Microdochium nivale) / liquid culture (foot rot cereals); format: cell-based; details: 96 h, read-out: control of Monographella nivalis
Gaeumannomyces graminis = Gaeumannomyces graminis / liquid culture (take-all of cereals); format: cell-based; details: read-out: control of Gaeumannomyces graminis
Fusarium culmorum [3] = assay: whole plant or invertebrate; format: in vivo; details: in Triticum aestivum, read-out: control of Fusarium culmorum
[4] = tested on: Glomerella lagenarium (Colletotrichum lagenarium); assay: Glomerella lagenarium (Colletotrichum lagenarium) / liquid culture (anthracnose); format: cell-based; details: Colletotrichum orbiculare; read-out: control of Glomerella lagenarium
Sclerotinia sclerotiorum = Sclerotinia sclerotiorum / liquid culture (cottony rot); details: 72 h, read-out: control of Sclerotinia sclerotiorum
Protocol: Sclerotinia sclerotiorum/Liquid Culture (Cottony Rot)
Mycelia fragments of a newly grown liquid culture of the fungus are directly mixed into nutrient broth (Vogels broth). After placing a (DMSO) solution of test compound into a microtiter plate (96-well format) the nutrient broth containing the fungal material is added. The test plates are incubated at 24° C. and the inhibition of growth is determined photometrically 3-4 days after application.

[5] = tested on: Magnaporthe grisea (Pyricularia oryzae); assay: microbe, parasite or virus in culture; format: cell-based; details: 72 h, read-out: control of Magnaporthe grisea
[6] = tested on: Botryotinia fuckeliana (Botrytis cinerea); assay: Botryotinia fuckeliana (Botrytis cinerea) / liquid culture (gray mould); format: cell-based; details: 72 h, read-out: control of Botryotinia fuckeliana
[7] = tested on: Mycosphaerella graminicola (Septoria tritici); assay: Mycosphaerella graminicola (Septoria tritici) / liquid culture (Septoria blotch); format: cell-based; details: Zymoseptoria tritici; read-out: control of Mycosphaerella graminicola

CC(C)CC(C)(Cc1cccc(F)c1)NC(=O)c1cnc2c(F)cccc2c1 (centres unmarked) [Compound E-26, 8-fluoro-N-[1-[(3-fluorophenyl)methyl]-1,3-dimethyl-butyl]quinoline-3-carboxamide]
inhibition of growth at 200 ppm (Fusarium culmorum [1]): ≥ 80%
inhibition of growth at 200 ppm [2]: ≥ 80%
melting point: 45 to 47 °C
inhibition of growth at 200 ppm (Gaeumannomyces graminis): ≥ 80%
pest or weed control at 200 ppm (Fusarium culmorum [3]): ≥ 80%
inhibition of growth at 200 ppm [4]: ≥ 80%
inhibition of growth at 20 ppm (Sclerotinia sclerotiorum): ≥ 80%
inhibition of growth at 200 ppm [5]: ≥ 80%
inhibition of growth at 200 ppm [6]: ≥ 80%

CC(C)(Cc1ccccc1F)NC(=O)c1cnc2ccccc2c1 [Compound E-2, N-[2-(2-fluorophenyl)-1,1-dimethyl-ethyl]quinoline-3-carboxamide]
inhibition of growth at 200 ppm (Fusarium culmorum [1]): ≥ 80%
inhibition of growth at 200 ppm [2]: ≥ 80%
inhibition of growth at 200 ppm (Gaeumannomyces graminis): ≥ 80%
inhibition of growth at 200 ppm [4]: ≥ 80%
inhibition of growth at 200 ppm [7]: ≥ 80%
inhibition of growth at 200 ppm [6]: ≥ 80%

CC(C)(O)CC(C)(Cc1ccccc1)NC(=O)c1cnc2c(F)cccc2c1 (centres unmarked) [Compound E-58, N-(1-benzyl-3-hydroxy-1,3-dimethyl-butyl)-8-fluoro-quinoline-3-carboxamide]
inhibition of growth at 200 ppm (Fusarium culmorum [1]): ≥ 80%
inhibition of growth at 200 ppm [2]: ≥ 80%
pest or weed control at 200 ppm (Fusarium culmorum [3]): ≥ 80%
inhibition of growth at 200 ppm [4]: ≥ 80%
inhibition of growth at 200 ppm [7]: ≥ 80%
inhibition of growth at 200 ppm [5]: ≥ 80%
inhibition of growth at 200 ppm [6]: ≥ 80%

CC(C)(F)C[C@](C)(Cc1ccccc1)NC(=O)c1cnc2c(F)cccc2c1 [Compound F-24, N-[(1S)-1-benzyl-3-fluoro-1,3-dimethyl-butyl]-8-fluoro-quinoline-3-carboxamide]
inhibition of growth at 200 ppm (Fusarium culmorum [1]): ≥ 80%
inhibition of growth at 200 ppm [2]: ≥ 80%
pest or weed control at 200 ppm (Fusarium culmorum [3]): ≥ 80%
inhibition of growth at 200 ppm [4]: ≥ 80%
inhibition of growth at 200 ppm [7]: ≥ 80%
inhibition of growth at 200 ppm [6]: ≥ 80%

CC(F)(F)C[C@@](C)(Cc1ccccc1)NC(=O)c1cnc2ccccc2c1 [Compound F-26, N-[(1R)-1-benzyl-3,3-difluoro-1-methyl-butyl]quinoline-3-carboxamide]
inhibition of growth at 200 ppm (Fusarium culmorum [1]): ≥ 80%
inhibition of growth at 200 ppm [2]: ≥ 80%
pest or weed control at 200 ppm (Fusarium culmorum [3]): ≥ 80%
inhibition of growth at 200 ppm [4]: ≥ 80%
inhibition of growth at 200 ppm [7]: ≥ 80%
inhibition of growth at 200 ppm [6]: ≥ 80%

C=C(C)CC(C)(Cc1ccccc1)NC(=O)c1cnc2c(F)cccc2c1 (centres unmarked) [Compound E-35, N-(1-benzyl-1,3-dimethyl-but-3-enyl)-8-fluoro-quinoline-3-carboxamide]
inhibition of growth at 200 ppm (Fusarium culmorum [1]): ≥ 80%
inhibition of growth at 200 ppm [2]: ≥ 80%
melting point: 115 to 117 °C
inhibition of growth at 200 ppm (Gaeumannomyces graminis): ≥ 80%
pest or weed control at 200 ppm (Fusarium culmorum [3]): ≥ 80%
inhibition of growth at 200 ppm [4]: ≥ 80%
inhibition of growth at 20 ppm (Sclerotinia sclerotiorum): ≥ 80%
inhibition of growth at 200 ppm [5]: ≥ 80%
inhibition of growth at 200 ppm [6]: ≥ 80%

CC(C)CC(C)(Cc1ccccc1)NC(=O)c1cnc2c(F)cccc2c1 (centres unmarked) [Compound E-6, N-(1-benzyl-1,3-dimethyl-butyl)-8-fluoro-quinoline-3-carboxamide]
inhibition of growth at 200 ppm (Fusarium culmorum [1]): ≥ 80%
inhibition of growth at 200 ppm [2]: ≥ 80%
melting point: 110 to 112 °C
inhibition of growth at 200 ppm (Gaeumannomyces graminis): ≥ 80%
pest or weed control at 200 ppm (Fusarium culmorum [3]): ≥ 80%
inhibition of growth at 200 ppm [4]: ≥ 80%
inhibition of growth at 200 ppm [7]: ≥ 80%
inhibition of growth at 20 ppm (Sclerotinia sclerotiorum): ≥ 80%
inhibition of growth at 200 ppm [5]: ≥ 80%
inhibition of growth at 200 ppm [6]: ≥ 80%

CC(C)CC(C)(Cc1ccc(F)cc1)NC(=O)c1cnc2c(F)cccc2c1 (centres unmarked) [Compound E-24, 8-fluoro-N-[1-[(4-fluorophenyl)methyl]-1,3-dimethyl-butyl]quinoline-3-carboxamide]
inhibition of growth at 200 ppm (Fusarium culmorum [1]): ≥ 80%
inhibition of growth at 200 ppm [2]: ≥ 80%
melting point: 38 to 39 °C
inhibition of growth at 200 ppm (Gaeumannomyces graminis): ≥ 80%
pest or weed control at 200 ppm (Fusarium culmorum [3]): ≥ 80%
inhibition of growth at 200 ppm [4]: ≥ 80%
inhibition of growth at 20 ppm (Sclerotinia sclerotiorum): ≥ 80%
inhibition of growth at 200 ppm [5]: ≥ 80%
inhibition of growth at 200 ppm [6]: ≥ 80%

CC(C)C[C@H](Cc1ccccc1)NC(=O)c1cnc2c(F)cccc2c1 [Compound F-3, N-[(1R)-1-benzyl-3-methyl-butyl]-8-fluoro-quinoline-3-carboxamide]
inhibition of growth at 200 ppm (Fusarium culmorum [1]): ≥ 80%
inhibition of growth at 200 ppm (Gaeumannomyces graminis): ≥ 80%
pest or weed control at 200 ppm (Fusarium culmorum [3]): ≥ 80%
inhibition of growth at 200 ppm [4]: ≥ 80%
inhibition of growth at 200 ppm [7]: ≥ 80%
inhibition of growth at 20 ppm (Sclerotinia sclerotiorum): ≥ 80%
inhibition of growth at 200 ppm [6]: ≥ 80%

CC(C)C[C@@](C)(Cc1ccccc1)NC(=O)c1cnc2c(F)cccc2c1 [Compound F-2, N-[(1S)-1-benzyl-1,3-dimethyl-butyl]-8-fluoro-quinoline-3-carboxamide]
inhibition of growth at 200 ppm (Fusarium culmorum [1]): ≥ 80%
inhibition of growth at 200 ppm [2]: ≥ 80%
inhibition of growth at 200 ppm (Gaeumannomyces graminis): ≥ 80%
pest or weed control at 200 ppm (Fusarium culmorum [3]): ≥ 80%
inhibition of growth at 200 ppm [4]: ≥ 80%
inhibition of growth at 200 ppm [7]: ≥ 80%
inhibition of growth at 20 ppm (Sclerotinia sclerotiorum): ≥ 80%
inhibition of growth at 200 ppm [6]: ≥ 80%

C=C(C)CC(C)(Cc1ccccc1)NC(=O)c1cnc2c(F)c(F)ccc2c1 (centres unmarked) [Compound E-55, N-(1-benzyl-1,3-dimethyl-but-3-enyl)-7,8-difluoro-quinoline-3-carboxamide]
inhibition of growth at 200 ppm (Fusarium culmorum [1]): ≥ 80%
inhibition of growth at 200 ppm [2]: ≥ 80%
melting point: 94 to 96 °C
pest or weed control at 200 ppm (Fusarium culmorum [3]): ≥ 80%
inhibition of growth at 200 ppm [4]: ≥ 80%
inhibition of growth at 200 ppm [7]: ≥ 80%
inhibition of growth at 200 ppm [5]: ≥ 80%
inhibition of growth at 200 ppm [6]: ≥ 80%

Cc1cccc2cc(C(=O)NC(C)(Cc3ccccc3)CC(F)(F)F)cnc12 (centres unmarked) [Compound E-61, N-(1-benzyl-3,3,3-trifluoro-1-methyl-propyl)-8-methyl-quinoline-3-carboxamide]
inhibition of growth at 200 ppm (Fusarium culmorum [1]): ≥ 80%
inhibition of growth at 200 ppm [2]: ≥ 80%
melting point: 120 to 123 °C
pest or weed control at 200 ppm (Fusarium culmorum [3]): ≥ 80%
inhibition of growth at 200 ppm [4]: ≥ 80%
inhibition of growth at 200 ppm [7]: ≥ 80%
inhibition of growth at 200 ppm [5]: ≥ 80%
inhibition of growth at 200 ppm [6]: ≥ 80%

CC(C)C[C@@](C)(Cc1ccccc1)NC(=O)c1cnc2ccccc2c1 [Compound F-6, N-[(1S)-1-benzyl-1,3-dimethyl-butyl]quinoline-3-carboxamide]
inhibition of growth at 200 ppm (Fusarium culmorum [1]): ≥ 80%
inhibition of growth at 200 ppm (Gaeumannomyces graminis): ≥ 80%
inhibition of growth at 200 ppm [4]: ≥ 80%
inhibition of growth at 200 ppm [7]: ≥ 80%
inhibition of growth at 200 ppm [6]: ≥ 80%

CC(C)(C)CC(Cc1ccccc1)NC(=O)c1cnc2c(F)cccc2c1 (centres unmarked) [Compound E-28, N-(1-benzyl-3,3-dimethyl-butyl)-8-fluoro-quinoline-3-carboxamide]
inhibition of growth at 200 ppm (Fusarium culmorum [1]): ≥ 80%
inhibition of growth at 200 ppm [2]: ≥ 80%
melting point: 178 to 180 °C
inhibition of growth at 200 ppm (Gaeumannomyces graminis): ≥ 80%
pest or weed control at 200 ppm (Fusarium culmorum [3]): ≥ 80%
inhibition of growth at 200 ppm [4]: ≥ 80%
inhibition of growth at 20 ppm (Sclerotinia sclerotiorum): ≥ 80%
inhibition of growth at 200 ppm [5]: ≥ 80%
inhibition of growth at 200 ppm [6]: ≥ 80%
